Patent US20100310420A1, “SENSORS” (THE TRUSTEES OF PRINCETON UNIVERSITY, priority 2003, published 2010)

Assays:
[1] = test system: eJSmcp1[pJStari1, pJSxcmcp1]; test: Swarming of eJSmcp1[pJStari1, pJSxcmcp1] grown with methyl-D-aspartate; format: cell-based, E. coli; settings: grown in the presence vs absence of methyl-D-aspartate; Tar-expressing transformed strain
Protocol: (§1) eJSmcp1[pJStari1, pJSxcmcp1] is grown in the absence and in the presence of methyl-D-aspartate.

[2] = test system: wild type aspartate responsive control cells; test: Swarming of wild type control cells grown with methyl-D-aspartate; format: cell-based, E. coli; settings: grown in the presence vs absence of methyl-D-aspartate
Protocol: as §1

For methyl-D-aspartate, the Swarming [1] was “Swarming is seen in the presence of the aspartate but not in its absence” and the Swarming [2] was “same results are seen”.
